Results published in PMC4062305 (Journal of medicinal chemistry, 2013).
Entries after “also recorded” stand apart in the source; their conditions may differ.

Each compound was assayed against T1, FAAH activity in brain (Mus musculus, UniProt O08914) (assay: Ex vivo FAAH inhibition in brain after systemic administration). Details: s.c. doses up to 40 or 75 mg/kg, 1 h after injection.
T1 sequence (O08914 1-579): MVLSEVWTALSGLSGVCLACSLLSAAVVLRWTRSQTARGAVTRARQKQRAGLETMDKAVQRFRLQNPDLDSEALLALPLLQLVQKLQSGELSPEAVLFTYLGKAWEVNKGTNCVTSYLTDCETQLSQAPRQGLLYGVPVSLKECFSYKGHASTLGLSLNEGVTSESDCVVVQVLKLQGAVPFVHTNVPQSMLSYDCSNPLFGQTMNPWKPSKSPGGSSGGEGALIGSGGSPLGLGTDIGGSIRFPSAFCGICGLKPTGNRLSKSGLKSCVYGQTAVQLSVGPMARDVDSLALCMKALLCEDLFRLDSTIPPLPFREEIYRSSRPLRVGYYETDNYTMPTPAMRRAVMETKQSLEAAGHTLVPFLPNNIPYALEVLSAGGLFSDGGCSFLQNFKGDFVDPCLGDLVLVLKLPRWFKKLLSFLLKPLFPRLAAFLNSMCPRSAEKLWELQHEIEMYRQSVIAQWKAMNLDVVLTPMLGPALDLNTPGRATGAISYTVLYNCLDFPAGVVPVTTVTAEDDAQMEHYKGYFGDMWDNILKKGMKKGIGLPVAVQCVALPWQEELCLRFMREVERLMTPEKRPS
Parameters: species or system Swiss Webster mice
`N.NC(=O)c1cccc(-c2cc(OC(=O)NC3CCCCC3)ccc2OS(=O)(=O)O)c1` [compound 30, Ammonium Cyclohexylcarbamic Acid 3’-Carbamoyl-6-sulfatebiphenyl-3-yl Ester] was tested, and the “Access to the brain in dose-exploration study (brain FAAH inhibition)” value (shortened to “Access to the brain … (brain FAAH inhibition)”) was “did not enter the brain, even at the highest dosage tested”.
In the case of `NC(=O)c1cccc(-c2cc(OC(=O)NC3CCCCC3)ccc2C(=O)O)c1` [compound 29, Cyclohexylcarbamic Acid 3’-Carbamoyl-6-carboxybiphenyl-3-yl Ester], the “Access to the brain … (brain FAAH inhibition)” value is reported as “failed to enter the brain even at the highest dose tested; also recorded: did not enter the brain, even at the highest dosage tested”.
In the case of `CC(=O)Nc1cccc(-c2cc(OC(=O)NC3CCCCC3)ccc2O)c1` [7c, Cyclohexylcarbamic Acid 3’-Acetamido-6-hydroxybiphenyl-3-yl Ester], the “Access to the brain … (brain FAAH inhibition)” value is reported as “significantly higher brain penetration relative to 3, 7d and 7e at all doses tested”.
